# Measured values published in paper PMC5218480 (PLoS ONE, 2017).
# Tested on: MV-4-11 cells
# Experiment: Gene expression microarray analysis (Affymetrix PrimeView) and GSEA
# Type: cell-based, human
# Set-up: RFU PODN (11730768_x_at) / Fold change /veh PODN (11730768_x_at) / RFU LINC00158 (11744669_a_at) / Fold change /veh LINC00158 (11744669_a_at) / RFU DUSP10 (11751237_a_at) / Fold change /veh DUSP10 (11751237_a_at) / RFU ID3 (11757404_x_at) / Fold change /veh ID3 (11757404_x_at) / RFU PLEKHG5 (11737974_s_at) / Fold change /veh PLEKHG5 (11737974_s_at) / RFU LRRC4B (11730491_at) / Fold change /veh LRRC4B (11730491_at) / RFU GIMAP4 (11747438_a_at) / Fold change /veh GIMAP4 (11747438_a_at) / RFU KRT8 (11758183_x_at) / Fold change /veh KRT8 (11758183_x_at) / RFU CNN1 (11734310_a_at) / Fold change /veh CNN1 (11734310_a_at) / RFU VPS37D (11726825_at) / Fold change /veh VPS37D (11726825_at) / RFU C10orf10 (11716522_x_at) / Fold change /veh C10orf10 (11716522_x_at) / RFU KIR2DL2 /// KIR2DL4 /// KIR2DL5A /// KIR2DL5B /// KIR2DS1 /// KIR2DS2 /// KIR2DS3 /// KIR2DS4 /// KIR3DL3 /// KIR3DL3 /// KIR3DS1 (11738374_at) / Fold change /veh KIR2DL2 /// KIR2DL4 /// KIR2DL5A /// KIR2DL5B /// KIR2DS1 /// KIR2DS2 /// KIR2DS3 /// KIR2DS4 /// KIR3DL3 /// KIR3DL3 /// KIR3DS1 (11738374_at) / RFU C1QL1 (11718748_at) / Fold change /veh C1QL1 (11718748_at) / RFU TMPRSS4 (11747572_a_at) / Fold change /veh TMPRSS4 (11747572_a_at) / RFU HAMP (11756126_x_at) / Fold change /veh HAMP (11756126_x_at) / RFU RNFT2 (11725882_a_at) / Fold change /veh RNFT2 (11725882_a_at) / RFU NR4A2 (11747474_a_at) / Fold change /veh NR4A2 (11747474_a_at) / RFU ABCC12 (11746883_a_at) / Fold change /veh ABCC12 (11746883_a_at) / RFU TMEM136 (11760407_x_at) / Fold change /veh TMEM136 (11760407_x_at) / RFU CLDN22 /// WWC2 (11732394_at) / Fold change /veh CLDN22 /// WWC2 (11732394_at) / RFU HLA-DPB1 (11760878_x_at) / Fold change /veh HLA-DPB1 (11760878_x_at) / RFU SPINT1 (11716480_a_at) / Fold change /veh SPINT1 (11716480_a_at) / RFU GAP43 (11754022_s_at) / Fold change /veh GAP43 (11754022_s_at) / RFU A4GNT (11735810_at) / Fold change /veh A4GNT (11735810_at) / RFU PRB3 (11715151_x_at) / Fold change /veh PRB3 (11715151_x_at) / RFU TUBB4B (11761932_at) / Fold change /veh TUBB4B (11761932_at) / RFU CAPN14 (11732068_a_at) / Fold change /veh CAPN14 (11732068_a_at) / RFU TMCC2 (11721928_a_at) / Fold change /veh TMCC2 (11721928_a_at) / RFU IRGQ (11745062_a_at) / Fold change /veh IRGQ (11745062_a_at) / RFU FAM174B (11720279_a_at) / Fold change /veh FAM174B (11720279_a_at) / RFU TMPRSS4 (11748680_a_at) / Fold change /veh TMPRSS4 (11748680_a_at) / RFU FAM212B (11763350_a_at) / Fold change /veh FAM212B (11763350_a_at) / RFU PLEKHG5 (11743358_a_at) / Fold change /veh PLEKHG5 (11743358_a_at) / RFU ZSCAN30 (11745921_a_at) / Fold change /veh ZSCAN30 (11745921_a_at) / RFU CMKLR1 (11741424_a_at) / Fold change /veh CMKLR1 (11741424_a_at) / RFU LOC101060620 /// MAPK8IP1 (11723275_at) / Fold change /veh LOC101060620 /// MAPK8IP1 (11723275_at) / RFU SPTSSB (11747773_x_at) / Fold change /veh SPTSSB (11747773_x_at) / RFU PRSS12 (11739890_at) / Fold change /veh PRSS12 (11739890_at) / RFU BIN1 (11741810_x_at) / Fold change /veh BIN1 (11741810_x_at) / RFU WNT11 (11732464_a_at) / Fold change /veh WNT11 (11732464_a_at) / RFU C10orf10 (11716521_a_at) / Fold change /veh C10orf10 (11716521_a_at) / RFU C5orf56 (11738089_at) / Fold change /veh C5orf56 (11738089_at) / RFU CYB561 (11721691_x_at) / Fold change /veh CYB561 (11721691_x_at) / RFU ANKRD19P (11752326_a_at) / Fold change /veh ANKRD19P (11752326_a_at) / RFU OR2T12 /// OR2T33 /// OR2T8 (11738714_s_at) / Fold change /veh OR2T12 /// OR2T33 /// OR2T8 (11738714_s_at) / RFU VCAN (11748164_a_at) / Fold change /veh VCAN (11748164_a_at) / RFU JSRP1 (11732532_at) / Fold change /veh JSRP1 (11732532_at) / RFU KRTAP10-11 (11738290_x_at) / Fold change /veh KRTAP10-11 (11738290_x_at) / RFU MYO3A (11730013_a_at) / Fold change /veh MYO3A (11730013_a_at) / RFU EBF3 (11725865_a_at) / Fold change /veh EBF3 (11725865_a_at) / RFU CAMK2N1 (11719241_x_at) / Fold change /veh CAMK2N1 (11719241_x_at) / RFU C5orf56 (11738088_a_at) / Fold change /veh C5orf56 (11738088_a_at) / RFU OLFML3 (11715873_a_at) / Fold change /veh OLFML3 (11715873_a_at) / RFU LOC100653217 /// NTM (11731650_a_at) / Fold change /veh LOC100653217 /// NTM (11731650_a_at) / RFU MAPK11 (11762145_a_at) / Fold change /veh MAPK11 (11762145_a_at) / RFU FIZ1 (11724087_x_at) / Fold change /veh FIZ1 (11724087_x_at) / RFU OASL (11726364_x_at) / Fold change /veh OASL (11726364_x_at) / RFU SOX15 (11748057_x_at) / Fold change /veh SOX15 (11748057_x_at) / RFU CD79A (11719716_a_at) / Fold change /veh CD79A (11719716_a_at) / RFU HIST1H1D (11736915_at) / Fold change /veh HIST1H1D (11736915_at) / RFU CASKIN2 (11723855_a_at) / Fold change /veh CASKIN2 (11723855_a_at) / RFU LOC730098 (11760151_x_at) / Fold change /veh LOC730098 (11760151_x_at) / RFU OR4N2 (11742367_at) / Fold change /veh OR4N2 (11742367_at) / RFU PRRT2 (11749266_a_at) / Fold change /veh PRRT2 (11749266_a_at) / RFU SNX32 (11753110_a_at) / Fold change /veh SNX32 (11753110_a_at) / RFU CDHR5 (11726645_a_at) / Fold change /veh CDHR5 (11726645_a_at) / RFU RCAN1 (11760418_a_at) / Fold change /veh RCAN1 (11760418_a_at) / RFU FAM167A (11723789_a_at) / Fold change /veh FAM167A (11723789_a_at) / RFU FAM26E (11764081_at) / Fold change /veh FAM26E (11764081_at) / RFU ISYNA1 (11749810_s_at) / Fold change /veh ISYNA1 (11749810_s_at) / RFU ACY1 (11761880_at) / Fold change /veh ACY1 (11761880_at) / RFU 11764098_at / Fold change /veh 11764098_at / RFU SAMD14 (11745864_x_at) / Fold change /veh SAMD14 (11745864_x_at) / RFU NPB (11741838_a_at) / Fold change /veh NPB (11741838_a_at) / RFU TMPRSS6 (11731388_a_at) / Fold change /veh TMPRSS6 (11731388_a_at) / RFU KRTAP10-2 (11738614_at) / Fold change /veh KRTAP10-2 (11738614_at) / RFU ARHGAP8 /// PRR5-ARHGAP8 (11727945_x_at) / Fold change /veh ARHGAP8 /// PRR5-ARHGAP8 (11727945_x_at) / RFU KRTAP5-7 /// NADSYN1 (11734609_at) / Fold change /veh KRTAP5-7 /// NADSYN1 (11734609_at) / RFU RASL12 (11751679_a_at) / Fold change /veh RASL12 (11751679_a_at) / RFU CDKN2B (11736163_a_at) / Fold change /veh CDKN2B (11736163_a_at) / RFU PRF1 (11729649_at) / Fold change /veh PRF1 (11729649_at) / RFU, ZNF638 /// ZNF638-IT1 / Fold change vs veh, ZNF638 /// ZNF638-IT1 / RFU, PANK3 / Fold change vs veh, PANK3 / RFU, SH3YL1 / Fold change vs veh, SH3YL1 / RFU, ZEB2 / Fold change vs veh, ZEB2 / RFU, NRIP1 / Fold change vs veh, NRIP1 / RFU, PTTG1IP / Fold change vs veh, PTTG1IP / RFU, CAPN2 / Fold change vs veh, CAPN2 / RFU, MED14 / Fold change vs veh, MED14 / RFU, SNORA58 / Fold change vs veh, SNORA58 / RFU, C1orf63 / Fold change vs veh, C1orf63 / RFU, LRRFIP1 / Fold change vs veh, LRRFIP1 / RFU, NDUFAF7 / Fold change vs veh, NDUFAF7 / RFU, SLC12A2 / Fold change vs veh, SLC12A2 / RFU, IBTK / Fold change vs veh, IBTK / RFU, ESF1 / Fold change vs veh, ESF1 / Fold change vs veh, TMEM50B / RFU, TAOK1 / Fold change vs veh, TAOK1 / RFU, ACBD3 / Fold change vs veh, ACBD3 / RFU, TMA16 / Fold change vs veh, TMA16 / RFU, RWDD3 / Fold change vs veh, RWDD3 / RFU, BCAT1 / Fold change vs veh, BCAT1 / RFU, EDEM3 / Fold change vs veh, EDEM3 / RFU, TMEM33 / Fold change vs veh, TMEM33 / RFU, WDR75 / Fold change vs veh, WDR75 / RFU, AHCTF1 / Fold change vs veh, AHCTF1 / RFU, TFRC / Fold change vs veh, TFRC / RFU, ZDHHC17 / Fold change vs veh, ZDHHC17 / RFU, NOM1 / Fold change vs veh, NOM1 / RFU, ARL8B / Fold change vs veh, ARL8B / RFU, ZBTB11 / Fold change vs veh, ZBTB11 / RFU, TAMM41 / Fold change vs veh, TAMM41 / RFU, KIAA1704 /// LOC100996395 / Fold change vs veh, KIAA1704 /// LOC100996395 / RFU, ING1 / Fold change vs veh, ING1 / RFU, TRMT61B / Fold change vs veh, TRMT61B / RFU, FUBP3 / Fold change vs veh, FUBP3 / RFU, TP53 / Fold change vs veh, TP53 / RFU, TNKS2 / Fold change vs veh, TNKS2 / RFU, ZFP14 / Fold change vs veh, ZFP14 / RFU, ACTR2 / Fold change vs veh, ACTR2 / RFU, PPP3R1 / Fold change vs veh, PPP3R1 / RFU, PIK3R1 / Fold change vs veh, PIK3R1 / RFU, HNRNPA1 / Fold change vs veh, HNRNPA1 / RFU, RNF170 / Fold change vs veh, RNF170 / RFU, ZNF28 / Fold change vs veh, ZNF28 / RFU, RNGTT / Fold change vs veh, RNGTT / RFU, OGT / Fold change vs veh, OGT / RFU, BRD1 / Fold change vs veh, BRD1 / RFU, MARS / Fold change vs veh, MARS / RFU, ZNF655 / Fold change vs veh, ZNF655 / RFU, FAHD1 / Fold change vs veh, FAHD1 / RFU, BDP1 / Fold change vs veh, BDP1 / RFU, LRRCC1 / Fold change vs veh, LRRCC1 / RFU, ARID1A / Fold change vs veh, ARID1A / RFU, ZNF146 / Fold change vs veh, ZNF146 / RFU, ZNF330 / Fold change vs veh, ZNF330 / RFU, GPN3 / Fold change vs veh, GPN3 / RFU, C9orf123 / Fold change vs veh, C9orf123 / RFU, N4BP2L2 / Fold change vs veh, N4BP2L2 / RFU, ARFIP1 / Fold change vs veh, ARFIP1 / RFU, FAM179B / Fold change vs veh, FAM179B / RFU, BCL10 / Fold change vs veh, BCL10 / RFU, UHRF1BP1L / Fold change vs veh, UHRF1BP1L / RFU, BET1 / Fold change vs veh, BET1 / RFU, CNOT2 / Fold change vs veh, CNOT2 / RFU, ZNF268 / Fold change vs veh, ZNF268 / Fold change vs veh, ZNF507 / RFU, DGCR2 / Fold change vs veh, DGCR2 / RFU, WDSUB1 / Fold change vs veh, WDSUB1 / Fold change vs veh, HSP90B1 /// MIR3652 / RFU, ADSS / Fold change vs veh, ADSS / RFU, GK / Fold change vs veh, GK / RFU, ZNF148 / Fold change vs veh, ZNF148 / RFU, TAF9 / Fold change vs veh, TAF9 / RFU, SLC1A5 / Fold change vs veh, SLC1A5 / RFU, SLMO2 / Fold change vs veh, SLMO2 / RFU, ABCC4 / Fold change vs veh, ABCC4 / RFU, LOC101060439 /// RAP1B / Fold change vs veh, LOC101060439 /// RAP1B / RFU, RFX7 / Fold change vs veh, RFX7 / RFU, GTPBP10 / Fold change vs veh, GTPBP10 / RFU, CNEP1R1 / Fold change vs veh, CNEP1R1 / RFU, BIVM-ERCC5 /// ERCC5 / Fold change vs veh, BIVM-ERCC5 /// ERCC5 / RFU, ILF3 / Fold change vs veh, ILF3 / RFU 11762660_at / Fold change /veh 11762660_at / RFU VCAN (11757783_s_at) / Fold change /veh VCAN (11757783_s_at) / RFU DDX43 (11728927_at) / Fold change /veh DDX43 (11728927_at) / RFU KRT8 (11758188_x_at) / Fold change /veh KRT8 (11758188_x_at) / RFU NKD1 (11759106_at) / Fold change /veh NKD1 (11759106_at) / RFU SRD5A1 (11742802_a_at) / Fold change /veh SRD5A1 (11742802_a_at) / RFU TPSAB1 /// TPSB2 (11721975_s_at) / Fold change /veh TPSAB1 /// TPSB2 (11721975_s_at) / RFU GSTM3 (11746129_a_at) / Fold change /veh GSTM3 (11746129_a_at) / RFU IL23R (11737362_x_at) / Fold change /veh IL23R (11737362_x_at) / RFU TMEM51 (11727254_a_at) / Fold change /veh TMEM51 (11727254_a_at) / RFU PIWIL2 (11732686_x_at) / Fold change /veh PIWIL2 (11732686_x_at) / RFU ORM1 (11744905_x_at) / Fold change /veh ORM1 (11744905_x_at) / RFU CCDC152 (11743942_at) / Fold change /veh CCDC152 (11743942_at) / RFU ECM1 (11717891_a_at) / Fold change /veh ECM1 (11717891_a_at) / RFU IL23R (11748794_a_at) / Fold change /veh IL23R (11748794_a_at) / RFU TNFAIP8L3 (11732012_x_at) / Fold change /veh TNFAIP8L3 (11732012_x_at) / RFU MBOAT4 (11741988_at) / Fold change /veh MBOAT4 (11741988_at) / RFU 11764193_at / Fold change /veh 11764193_at / RFU TMEM53 (11763286_at) / Fold change /veh TMEM53 (11763286_at) / RFU MAGEB2 (11727129_at) / Fold change /veh MAGEB2 (11727129_at) / RFU TMEM200A (11744735_a_at) / Fold change /veh TMEM200A (11744735_a_at) / RFU CCDC152 (11751479_a_at) / Fold change /veh CCDC152 (11751479_a_at) / RFU FAM211A (11726209_a_at) / Fold change /veh FAM211A (11726209_a_at) / RFU RGS16 (11746705_a_at) / Fold change /veh RGS16 (11746705_a_at) / RFU VCAN (11755009_s_at) / Fold change /veh VCAN (11755009_s_at) / RFU RHOB (11743442_s_at) / Fold change /veh RHOB (11743442_s_at) / RFU RGS16 (11720943_a_at) / Fold change /veh RGS16 (11720943_a_at) / RFU RGS16 (11720944_at) / Fold change /veh RGS16 (11720944_at) / RFU, VPS4B / Fold change vs veh, VPS4B / RFU, CREB1 / Fold change vs veh, CREB1 / RFU, DNAJC13 / Fold change vs veh, DNAJC13 / RFU, GNAQ / Fold change vs veh, GNAQ / RFU, CDK5R1 / Fold change vs veh, CDK5R1 / RFU, ZRANB3 / Fold change vs veh, ZRANB3 / RFU, CUL4A / Fold change vs veh, CUL4A / RFU, CCNY / Fold change vs veh, CCNY / RFU, UFL1 / Fold change vs veh, UFL1 / RFU, COG3 / Fold change vs veh, COG3 / RFU, DIAPH2 / Fold change vs veh, DIAPH2 / RFU, SKA2 / Fold change vs veh, SKA2 / RFU, AFF3 / Fold change vs veh, AFF3 / RFU, LMF1 / Fold change vs veh, LMF1 / RFU, IPO11 / Fold change vs veh, IPO11 / RFU, DFFB / Fold change vs veh, DFFB / RFU, FOXP1 / Fold change vs veh, FOXP1 / RFU, CARD8 / Fold change vs veh, CARD8 / RFU, STRN3 / Fold change vs veh, STRN3 / RFU, ADK / Fold change vs veh, ADK / RFU, RASSF2 / Fold change vs veh, RASSF2 / RFU, WIPF1 / Fold change vs veh, WIPF1 / RFU, LARP1B / Fold change vs veh, LARP1B / RFU, RASA1 / Fold change vs veh, RASA1 / RFU, RB1 / Fold change vs veh, RB1 / RFU, PPFIA1 / Fold change vs veh, PPFIA1 / RFU, MAT2A / Fold change vs veh, MAT2A / RFU, CCT5 / Fold change vs veh, CCT5 / RFU, WDR92 / Fold change vs veh, WDR92 / RFU, CUX1 / Fold change vs veh, CUX1 / RFU, TTC7A / Fold change vs veh, TTC7A / RFU, TMEM135 / Fold change vs veh, TMEM135 / RFU, DEPTOR / Fold change vs veh, DEPTOR / RFU, CPM / Fold change vs veh, CPM / RFU, DNAJB6 / Fold change vs veh, DNAJB6 / RFU, CACNA2D3 / Fold change vs veh, CACNA2D3 / RFU, DTX4 / Fold change vs veh, DTX4 / RFU, TFCP2 / Fold change vs veh, TFCP2 / RFU, GMCL1 /// GMCL1P1 / Fold change vs veh, GMCL1 /// GMCL1P1 / RFU, AEBP2 / Fold change vs veh, AEBP2 / RFU, SNHG1 /// SNORD22 /// SNORD25 /// SNORD26 /// SNORD27 /// SNORD28 /// SNORD29 /// SNORD31 / Fold change vs veh, SNHG1 /// SNORD22 /// SNORD25 /// SNORD26 /// SNORD27 /// SNORD28 /// SNORD29 /// SNORD31 / Fold change (Aza/veh), C12orf56 (ProbeSet 11735607_a_at) / Fold change (ACY-1035/veh), C12orf56 (ProbeSet 11735607_a_at) / Fold change (Aza/veh), FGFR1OP (ProbeSet 11751329_s_at) / Fold change (ACY-1035/veh), FGFR1OP (ProbeSet 11751329_s_at) / Fold change (Aza/veh), VPS36 (ProbeSet 11739960_a_at) / Fold change (ACY-1035/veh), VPS36 (ProbeSet 11739960_a_at) / RFU SYPL1 (11715823_x_at) / Fold change /veh SYPL1 (11715823_x_at) / RFU IGFBP7 (11715501_s_at) / Fold change /veh IGFBP7 (11715501_s_at) / RFU REEP3 (11722064_at) / Fold change /veh REEP3 (11722064_at) / RFU IGLL1 (11728026_x_at) / Fold change /veh IGLL1 (11728026_x_at): dose or concentration left out as unconfirmed
# Settings: MV-4-11 cells, 48 hours
smiles,measurement,value
Nc1ncn([C@@H]2O[C@H](CO)[C@@H](O)[C@H]2O)c(=O)n1 [azacitidine],RFU HIST1H1D (11736915_at),16.89 RFU
